Values quoted from earlier work in publication PMC10644327, “A randomized, double‐blind phase 1b study evaluating the safety, tolerability, pharmacokinetics and pharmacodynamics of the NLRP3 inhibitor selnoflast in patients with moderate to severe active ulcerative colitis” (Clinical and Translational Medicine, 2023).

Set-up: method as in earlier work
Conditions: added to standard‐of‐care therapy, patients with acute severe UC; cited from earlier work

In the case of anakinra, the Clinical outcome is given as “did not improve the clinical outcome”.
